Test results published in PMC11062899, “De novo development of small cyclic peptides that are orally bioavailable” (Nature Chemical Biology, 2023).
Where “and” joins values, the source holds several entries; their conditions need not be identical. Identical values can stand only once. Like-named read-outs stand apart in the source and are kept apart here.

Columns and labels:
rat α-thrombin = target: T1, rat α-thrombin (Rattus norvegicus, UniProt P18292); assay: Protease inhibition, Ki for rat α-thrombin (fluorogenic substrate Z-Gly-Gly-Arg-AMC); format: biochemical; settings: for Rat alpha thrombin inhibition, slope normalized to DMSO: replicates R1-R3
T1 construct: rat α-thrombin (Molecular Innovations) were used at final concentrations of 2 nM and 3 nM; purchased Molecular Innovations
Summary of the method: (§1)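 Ki derived through Cheng–Prusoff from IC50s (four-parameter logistic fit) against activity of peptide-free controls. Product fluorescence was read every 3 min over 30 min at 25 °C, substrate Z-Gly-Gly-Arg-AMC at 50 μM. Enzyme was 2 nM human or 3 nM rat α-thrombin, pH 7.4 buffer.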

human α-thrombin = human α-thrombin (Homo sapiens, UniProt P00734); assay: Protease inhibition, Ki for human α-thrombin (fluorogenic substrate Z-Gly-Gly-Arg-AMC); format: biochemical; settings: for Human alpha thrombin inhibition, slope normalized to DMSO: replicates R1-R3
Summary of the method: as §1

[1] = Passive artificial membrane permeability (PAMPA);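 as to Permeability% Average: top well sample relative to theoretical equilibrium sample by TIC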
[2] = peptide concentration 1.00E+02 uM
[3] = peptide concentration 1.19E-05 uM
[4] = peptide concentration 1.22E-02 uM
[5] = peptide concentration 1.25E+01 uM
[6] = peptide concentration 1.53E-03 uM
[7] = peptide concentration 1.56E+00 uM
[8] = peptide concentration 1.91E-04 uM
[9] = peptide concentration 1.95E-01 uM
[10] = peptide concentration 2.38E-05 uM
[11] = peptide concentration 2.44E-02 uM
[12] = peptide concentration 2.50E+01 uM
[13] = peptide concentration 3.05E-03 uM
[14] = peptide concentration 3.12E+00 uM
[15] = peptide concentration 3.81E-04 uM
[16] = peptide concentration 3.91E-01 uM
[17] = peptide concentration 4.77E-05 uM
[18] = peptide concentration 4.88E-02 uM
[19] = peptide concentration 5.00E+01 uM
[20] = peptide concentration 6.10E-03 uM
[21] = peptide concentration 6.25E+00 uM
[22] = peptide concentration 7.63E-04 uM
[23] = peptide concentration 7.81E-01 uM
[24] = peptide concentration 9.54E-05 uM
[25] = peptide concentration 9.77E-02 uM

For `O=C1C[C@H]2CCCN2C(=O)[C@H](Cc2ccccc2)NC(=O)[C@@H](NC(=O)c2ccc(Cl)s2)CCCC=CCCCCN1` [compound 44], which Ki (rat α-thrombin; average of R1-R3, read-out: Rat alpha thrombin inhibition, Ki Average) is on record?
The Ki was 252 nM.

What about the “Rat alpha thrombin inhibition, slope normalized to DMSO” value (rat α-thrombin; [2]) of the same molecule?
The value was 7.5 and 5.2 and 7.4.

What about the “Rat alpha thrombin inhibition, slope normalized to DMSO” value (rat α-thrombin; [3]) of the same molecule?
The value was 101.0 and 99.4 and 101.8.

And the “Rat alpha thrombin inhibition, slope normalized to DMSO” value (rat α-thrombin; [4])?
The value was 100.6 and 96.9 and 105.9.

And the “Rat alpha thrombin inhibition, slope normalized to DMSO” value (rat α-thrombin; [5])?
Its value is 11.6 and 13.6 and 8.8.

What about the “Rat alpha thrombin inhibition, slope normalized to DMSO” value (rat α-thrombin; [6]) of the same molecule?
The value was 110.9 and 102.8 and 91.9.

What about the “Rat alpha thrombin inhibition, slope normalized to DMSO” value (rat α-thrombin; [7]) of the same molecule?
The value was 29.5 and 31.9 and 33.8.

What about the “Rat alpha thrombin inhibition, slope normalized to DMSO” value (rat α-thrombin; [8]) of the same molecule?
Its value is 101.7 (2×) and 104.1.

And the “Rat alpha thrombin inhibition, slope normalized to DMSO” value (rat α-thrombin; [9])?
Its value is 57.9 and 68.0 and 74.9.

And the “Rat alpha thrombin inhibition, slope normalized to DMSO” value (rat α-thrombin; [10])?
The value was 95.3 and 93.1 and 98.0.

What about the “Rat alpha thrombin inhibition, slope normalized to DMSO” value (rat α-thrombin; [11]) of the same molecule?
The value was 87.6 and 90.4 and 103.1.

And the “Rat alpha thrombin inhibition, slope normalized to DMSO” value (rat α-thrombin; [12])?
Its value is 10.8 and 13.8 and 2.6.

And the “Rat alpha thrombin inhibition, slope normalized to DMSO” value (rat α-thrombin; [13])?
The value was 84.4 and 99.6 and 89.5.

What about the “Rat alpha thrombin inhibition, slope normalized to DMSO” value (rat α-thrombin; [14]) of the same molecule?
The value was 19.8 and 21.4 and 23.1.

And the “Rat alpha thrombin inhibition, slope normalized to DMSO” value (rat α-thrombin; [15])?
The value was 100.0 and 99.2 and 101.2.

What about the “Rat alpha thrombin inhibition, slope normalized to DMSO” value (rat α-thrombin; [16]) of the same molecule?
The value was 59.7 and 45.3 and 63.3.

And the “Rat alpha thrombin inhibition, slope normalized to DMSO” value (rat α-thrombin; [17])?
The value was 96.9 and 93.8 and 94.4.

And the “Rat alpha thrombin inhibition, slope normalized to DMSO” value (rat α-thrombin; [18])?
The value was 85.6 and 100.2 and 83.3.

What about the “Rat alpha thrombin inhibition, slope normalized to DMSO” value (rat α-thrombin; [19]) of the same molecule?
The value was 7.6 and 10.7 and 9.3.

And the “Rat alpha thrombin inhibition, slope normalized to DMSO” value (rat α-thrombin; [20])?
The value was 100.9 and 96.3 and 102.1.

And the “Rat alpha thrombin inhibition, slope normalized to DMSO” value (rat α-thrombin; [21])?
The value was 12.6 and 18.3 and 16.4.

What about the “Rat alpha thrombin inhibition, slope normalized to DMSO” value (rat α-thrombin; [22]) of the same molecule?
The value was 96.9 and 104.7 and 92.6.

What about the “Rat alpha thrombin inhibition, slope normalized to DMSO” value (rat α-thrombin; [23]) of the same molecule?
The value was 48.7 and 32.2 and 42.2.

And the “Rat alpha thrombin inhibition, slope normalized to DMSO” value (rat α-thrombin; [24])?
Its value is 95.8 and 96.9 and 102.0.

What about the “Rat alpha thrombin inhibition, slope normalized to DMSO” value (rat α-thrombin; [25]) of the same molecule?
Its value is 78.0 and 74.1 and 90.2.

What about the IC50 (rat α-thrombin; single replicates R1-R3, read-out: Rat alpha thrombin inhibition, IC50) of the same molecule?
The IC50 was 451 nM and 308 nM and 605 nM.

And the Ki (rat α-thrombin; single replicates R1-R3, read-out: Rat alpha thrombin inhibition, Ki)?
Its Ki is 250 nM (2×) and 171 nM (2×) and 335 nM (2×).

What about the Ki (human α-thrombin; average of R1-R3, read-out: Human alpha thrombin inhibition, Ki Average) of the same molecule?
The Ki was 1160 nM.

What about the “Human alpha thrombin inhibition, slope normalized to DMSO” value (human α-thrombin; [2]) of the same molecule?
Its value is 21.2 and 22.5 and 13.5.

What about the “Human alpha thrombin inhibition, slope normalized to DMSO” value (human α-thrombin; [3]) of the same molecule?
Its value is 107.9 and 108.1 and 100.7.

And the “Human alpha thrombin inhibition, slope normalized to DMSO” value (human α-thrombin; [4])?
Its value is 45.0 and 106.0 and 79.1.

And the “Human alpha thrombin inhibition, slope normalized to DMSO” value (human α-thrombin; [5])?
The value was 20.5 and 29.2 and 28.2.

And the “Human alpha thrombin inhibition, slope normalized to DMSO” value (human α-thrombin; [6])?
Its value is 70.8 and 98.2 and 101.6.

What about the “Human alpha thrombin inhibition, slope normalized to DMSO” value (human α-thrombin; [7]) of the same molecule?
The value was 57.8 and 72.9 and 62.5.

What about the “Human alpha thrombin inhibition, slope normalized to DMSO” value (human α-thrombin; [8]) of the same molecule?
Its value is 100.2 and 106.6 and 100.4.

What about the “Human alpha thrombin inhibition, slope normalized to DMSO” value (human α-thrombin; [9]) of the same molecule?
The value was 100.6 and 90.9 and 89.3.

What about the “Human alpha thrombin inhibition, slope normalized to DMSO” value (human α-thrombin; [10]) of the same molecule?
The value was 109.7 and 103.6 and 106.2.

And the “Human alpha thrombin inhibition, slope normalized to DMSO” value (human α-thrombin; [11])?
Its value is 86.3 and 104.2 and 79.8.

What about the “Human alpha thrombin inhibition, slope normalized to DMSO” value (human α-thrombin; [12]) of the same molecule?
The value was 13.8 and 27.1 and 20.7.

And the “Human alpha thrombin inhibition, slope normalized to DMSO” value (human α-thrombin; [13])?
The value was 101.3 and 97.0 and 101.4.

And the “Human alpha thrombin inhibition, slope normalized to DMSO” value (human α-thrombin; [14])?
Its value is 19.7 and 40.6 and 23.4.

And the “Human alpha thrombin inhibition, slope normalized to DMSO” value (human α-thrombin; [15])?
Its value is 71.5 and 115.8 and 100.2.

What about the “Human alpha thrombin inhibition, slope normalized to DMSO” value (human α-thrombin; [16]) of the same molecule?
The value was 64.9 and 85.6 and 86.8.

And the “Human alpha thrombin inhibition, slope normalized to DMSO” value (human α-thrombin; [17])?
The value was 107.4 and 99.0 and 99.6.

What about the “Human alpha thrombin inhibition, slope normalized to DMSO” value (human α-thrombin; [18]) of the same molecule?
The value was 103.0 and 102.1 and 95.7.

What about the “Human alpha thrombin inhibition, slope normalized to DMSO” value (human α-thrombin; [19]) of the same molecule?
Its value is 20.6 and 21.0 and 15.4.

And the “Human alpha thrombin inhibition, slope normalized to DMSO” value (human α-thrombin; [20])?
The value was 86.7 and 105.1 and 95.4.

And the “Human alpha thrombin inhibition, slope normalized to DMSO” value (human α-thrombin; [21])?
Its value is 41.3 and 33.5 and 28.3.

What about the “Human alpha thrombin inhibition, slope normalized to DMSO” value (human α-thrombin; [22]) of the same molecule?
The value was 100.0 and 108.8 and 108.6.

What about the “Human alpha thrombin inhibition, slope normalized to DMSO” value (human α-thrombin; [23]) of the same molecule?
Its value is 74.4 and 82.4 and 81.1.

And the “Human alpha thrombin inhibition, slope normalized to DMSO” value (human α-thrombin; [24])?
Its value is 104.7 and 102.3 and 88.7.

What about the “Human alpha thrombin inhibition, slope normalized to DMSO” value (human α-thrombin; [25]) of the same molecule?
The value was 98.8 and 95.6 and 95.8.

What about the IC50 (human α-thrombin; single replicates R1-R3, read-out: Human alpha thrombin inhibition, IC50) of the same molecule?
Its IC50 is 1300 nM and 1670 nM and 1530 nM.

And the Ki (human α-thrombin; single replicates R1-R3, read-out: Human alpha thrombin inhibition, Ki)?
Its Ki is 1 µM (2×) and 1.29 µM (2×) and 1.18 µM (2×).

And the “PAMPA permeability: % permeability” value ([1]; 50 μM, 12–18 h, acceptor concentration relative to equilibrium)?
The value was 48 ± 19%.

And the “Permeability% (single replicates R1–R3)” value ([1]; 50 μM, 13 h (Fig. 5d))?
The value was 26.09% and 53.35% and 63.35%.

And the “Permeability% Average” value ([1]; 50 μM, 13 h (Fig. 5d))?
The value was 47.6%.

And the Papp at 50 μM ([1]; PAMPA, pH 7.4)?
The Papp at 50 μM was 5.62 ×10⁻⁶ cm/s.
